Consider seven molecules from ChEMBL document CHEMBL1128091, “Ly316340: A potent HIV-1 protease inhibitor containing a high affinity octahydrothienopyridine hydroxyethylamine isostere” (Bioorg Med Chem Lett, 1995).

Each structure is given as a SMILES string.

Data set [1] in a line: Bioavailability was evaluated in rats at a dose of 20 mg/kg, under fasting state. Format: ADME, organism-based. Particulars: rat, in vivo.
Data set [2] is described as follows: Bioavailability was evaluated in rats at a dose of 20 mg/kg, under fed state. Format: ADME, organism-based. To be noted: rat, in vivo.
Data set [3] is described as follows: (§1) Cmax value was evaluated in rats at a dose of 20 mg/kg. To be noted: rat, in vivo. The arrangement: dose 20 mg/kg. Format: ADME, organism-based.
The test system of the next data set is Rattus norvegicus. Described as §1. Format: ADME, organism-based. To be noted: in vivo. The arrangement: dose 20 mg/kg.
The test system of data set [4] is CEM-SS. Kind of data set: (§2) Inhibitory concentration required for antiviral activity against HXB-2 infected CEM-SS cells. Format: functional. To be noted: Homo sapiens.
Data set [5] concerns the target Human immunodeficiency virus type 1 protease (Human immunodeficiency virus 1, UniProt Q72874). Kind of data set: Inhibitory concentration required against HIV-1 protease.
In data set [6] the test system is CEM-SS. The data set is described as §2. In kind it is functional, cell-based. To be noted: Homo sapiens.

`CS(=O)(=O)O.Cc1c(O)cccc1C(=O)N[C@@H](CSc1ccccc1)[C@H](O)CN1C[C@H]2CCS[C@H]2C[C@H]1C(=O)NC(C)(C)C`: the bioavailability was 22% in data set [1] and 19% in data set [2]. Moreover, the Cmax in data set [3] came to 1.4 µM; in the data set on Rattus norvegicus, 1 µM.

For `Cc1c(O)cccc1C(=O)N[C@@H](Cc1ccccc1)[C@H](O)CN1C[C@H]2CCS[C@H]2C[C@H]1C(=O)NC(C)(C)C`, it took 1.36 µM to reach the 95% level with CEM-SS [4] (IC95). The values for the IC50 (in data set [5]; in the data set on CEM-SS [6]) were 0.0005 µM and 0.024 µM, respectively.

In data set [5], `CC(C)(C)NC(=O)[C@@H]1C[C@@H]2CCCC[C@@H]2CN1C[C@@H](O)[C@H](Cc1ccccc1)NC(=O)OCc1ccccc1` registered an IC50 of 0.127 µM.

In the case of `Cc1c(O)cccc1C(=O)N[C@@H](Cc1ccccc1)[C@H](O)CN1C[C@H]2CCCC[C@H]2C[C@H]1C(=O)NC(C)(C)C`, the IC95 with CEM-SS [4] was 0.135 µM. For the same molecule, the IC50 in data set [5] is 0.013 µM; in the data set on CEM-SS [6] it was 0.033 µM.

As for `CC(C)(C)NC(=O)[C@@H]1C[C@@H]2CCCC[C@@H]2CN1C[C@@H](O)[C@H](Cc1ccccc1)NC(=O)[C@H](CC(N)=O)NC(=O)c1ccc2ccccc2n1`, in the data set with CEM-SS [4], the IC95 was 0.021 µM. In the data set on CEM-SS [6], this molecule displayed an IC50 of 0.0066 µM.

The molecule `Cc1c(O)cccc1C(=O)N[C@@H](CSc1ccccc1)[C@H](O)CN1C[C@H]2CCS[C@H]2C[C@H]1C(=O)NC(C)(C)C` had a concentration for an effect of 95% (IC95) in the data set with CEM-SS [4] of 0.018 µM. In addition, the IC50 worked out at 0.0003 µM in data set [5] and 0.0051 µM with CEM-SS [6].

Molecule `CC(C)(C)NC(=O)[C@@H]1C[C@@H]2SCC[C@@H]2CN1C[C@@H](O)[C@H](Cc1ccccc1)NC(=O)OCc1ccccc1` came in with an IC50 in data set [5] of 0.0066 µM.
